Reference: US8193213B2, “Spermicidal and/or antifungal composition and methods of using the same” (priority 2003, dated 2012)
Marks after values point to notes of the source that are not given here.

What was measured:
adult male Swiss mice = experiment: Antispermatogenic screen: single gavage dose to male mice, testes weight and Spermatogenic Index at 72 h; type: in vivo; conditions: racemic compounds, day 3 (72 h), vehicle 90% water, 7% Tween20, 3% ethanol
Procedure: The compounds of the invention were tested in mice for their effects on spermatogenesis three days after a single oral dose by the procedure described in Cook et al (1995) below. Compounds active in this test have been shown also to be anti-fertility compounds.
Compounds were screened for antispermatogenic activity by dosing male mice on day 1 with a gavage dose of control vehicle, positive control (compound 1) or compound of the invention. At 72 h after dosing, animals were killed and the testes were excised, trimmed of fat, and weighed. One testis was examined histologically and rated for spermatogenic potential using the Spermatogenic Index (J. M. Whitsett, P. F. Noden, J. Cherry and A. D. Lawton, J. Reprod. Fertil., 72, 277 (1984), which is a semiquantitative estimate of the sperm producing ability of the testes The index is based on histological appearance of the spermatogenic cells in the seminiferous tubules. A scale of 1 to 6 is used with 5 to 6 being the normal status. A second assessment was based on the weight of the testes.
Tables 1 and 2 show pertinent biological results in terms of the change in testes weight (TW) and spermatogenic index (SI) relative to a control containing only the administration vehicle, but no indenopyridine. In Tables 1 and 2, R^3 and R^4 refer to structures Ib, where R^3 is in the para position; R^1 is ethyl; R^2 is methyl; and R^5 is hydrogen.

Aspergillus fumigatus = experiment: Antifungal susceptibility testing (NCCLS, MIC/MFC) against A. fumigatus; type: cell-based; parameters: Lowest [Active]: unit not given here; conditions: A. fumigatus (48 hours)
Procedure: (§1) Antifungal susceptibility testing was performed following the NCCLS guidelines with minor modifications. Briefly, a suspension of Candida albicans cells was prepared from pure cultures grown overnight on yeast-malt extract (YM) agar at 35° C. Several small colonies were removed from a YM agar plate and transferred to 5 ml of 0.85% saline. The cells were suspended by 15 seconds of vortexing and the cell density of the resulting suspension was determined using a spectrophotometer. The cell density was adjusted by addition of 0.85% saline until the transmittance matched that of a 0.5 McFarland standard when measured at a wavelength of 530 nm. An aliquot of this suspension was diluted 1:1000 in RPMI-MOPS to yield a working suspension. A similar suspension of Aspergillus fumigatus spores was obtained by using spores stored at […] in 0.85% saline. These spores were diluted in 0.85% saline to match the McFarland standard transmittance. This suspension was then further diluted 1:50 in RPMI-MOPS to produce the working inoculum suspension.
(§2) Dilution series of the test compounds were made in RPMI-MOPS containing 2% DMSO. An aliquot of each dilution was added in duplicate to the wells of a sterile 96-well, flat bottom microtiter plate. Then, an aliquot of either the C. albicans cell suspension or the A. fumigatus spore suspension were added to each well for a final volume of 200 μl. The plates were then incubated at […]. […] A similar determination was made for the A. fumigatus plates after 48 hours. […] The numbers of colony forming units (CFU) were counted and these values used to calculate the percent survival of cells or spores in inocula relative to the number of CFUs in the working inoculum suspension. The minimum fungicidal concentration (MFC) was the lowest concentration of test compound with a percent survival of less than 2%.

rat cauda sperm = experiment: Direct effect on sperm motility, rat cauda epididymis sperm; type: cell-based; conditions: control: progressive motility
Procedure: Method for Determining Direct Effect of an Agent on Sperm Motility The direct effect of an agent on sperm motility was determined by using the following protocols. Basically, sperm are obtained either from the cauda epididymis, as in the case of the rat, or ejaculated sperm collected using an artificial vagina, as in the rabbit. The initial motility of the sperm is determined manually or by using a Hamilton Thorn IVOS sperm analyzer. The sperm are then kept at a constant temperature of 34° C., diluted to a consistent concentration of 10×10^6/ml, and added to about 3 ml of buffer or media. The motility is determined again at this point and any change is recorded. Different concentrations of the agent to be tested are then added to the sperm preparation. The sperm samples are then held at the same temperature for one hour and the motility is determined. The results are recorded as the percent of motile sperm in the sample. The Sperm were kept at 34° C. throughout the experimental period. Sperm concentration was be approximately 10×10^6/ml (note, the sample may have had to be diluted with buffer or media to reach this concentration). For the Rat Studies: (Using Sperm from the Cauda Epididymis) A 1 mM stock of the indenopyridine in HBSS buffer+BSA (5 mg in 10=0.5 ug/ul; 0.5 ug/ml=1 uM) was prepared and added as follows: 1 uM=1 ul stock+949 ul HBSS buffer+BSA+50 ul of the diluted sperm 3 uM=3 ul stock+947 ul HBSS buffer+BSA+50 ul of the diluted sperm 10 uM=10 ul stock+940 ul HBSS buffer+BSA+50 ul of the diluted sperm 30 uM=30 ul stock+920 ul HBSS buffer+BSA+50 ul of the diluted sperm 100 uM=100 ul stock+850 ul HBSS buffer+BSA+50 ul of the diluted sperm 300 uM=300 ul stock+650 ul HBSS buffer+BSA+50 ul of the diluted sperm 1000 uM=1000 ul stock+50 ul of the diluted sperm Sperm Motility was determined after 1 hour. Slides were made to determine morphology changes and eosin was added to determine cell death.

rabbit ejaculated sperm = experiment: Direct effect on sperm motility, rabbit ejaculated sperm; type: cell-based; conditions: for Motility (%) at 60 Minutes: rabbit ejaculate diluted 1:10, 34° C., control 76.6
Procedure: Method for Determining Direct Effect of an Agent on Sperm Motility The direct effect of an agent on sperm motility was determined by using the following protocols. Basically, sperm are obtained either from the cauda epididymis, as in the case of the rat, or ejaculated sperm collected using an artificial vagina, as in the rabbit. The initial motility of the sperm is determined manually or by using a Hamilton Thorn IVOS sperm analyzer. The sperm are then kept at a constant temperature of 34° C., diluted to a consistent concentration of 10×10^6/ml, and added to about 3 ml of buffer or media. The motility is determined again at this point and any change is recorded. Different concentrations of the agent to be tested are then added to the sperm preparation. The sperm samples are then held at the same temperature for one hour and the motility is determined. The results are recorded as the percent of motile sperm in the sample. The Sperm were kept at 34° C. throughout the experimental period. Sperm concentration was be approximately 10×10^6/ml (note, the sample may have had to be diluted with buffer or media to reach this concentration). For the Rabbit Studies: (Using Ejaculated Sperm) A 1 mM stock of the indenopyridine in M-199 media with BSA (2.5 mg in 5=0.5 ug/ul; 0.5 ug/ml=1 uM) was prepared and added as follows: 1 uM=1 ul stock+949 ul M-199 media with BSA+50 ul of the diluted sperm 3 uM=3 ul stock+947 ul M-199 media with BSA+50 ul of the diluted sperm 10 uM=10 ul stock+940 ul M-199 media with BSA+50 ul of the diluted sperm 30 uM=30 ul stock+920 ul M-199 media with BSA+50 ul of the diluted sperm 100 uM=100 ul stock+850 ul M-199 media with BSA+50 ul of the diluted sperm 300 uM=300 ul stock+650 ul M-199 media with BSA+50 ul of the diluted sperm 1000 uM=1000 ul stock+50 ul of the diluted sperm Sperm motility was determined after 1 hour. Slides were made to determine morphology changes and eosin was added to determine cell death.

Candida albicans = experiment: Antifungal susceptibility testing (NCCLS, MIC/MFC) against C. albicans; type: cell-based; parameters: Lowest [Active]: unit not given here; conditions: C. albicans (19 hours)
Procedure: as §1, §2

[1] = concentrations 300, 200, 100, unit not given, N/A = no active concentration

## CCN1CC[C@@H]2[C@@H](c3ccc(C(=O)O)cc3)c3cc(C)ccc3[C@@H]2C1.Cl (racemic) [Compound 2, (4aRS,5SR,9bRS)-2-Ethyl-2,3,4,4a,5,9b-hexahydro-7-methyl-5-(4-carboxyphenyl)-1H-indeno[1,2-c]pyridine Hydrochloride]
Adult male Swiss mice; 10 mg/kg single gavage dose
  SI change (%) (Spermatogenic Index, % change from vehicle control): −24%*
  TW change (%) (testes weight, % change from vehicle control): 2%
Adult male Swiss mice; 30 mg/kg single gavage dose
  SI change (%) (Spermatogenic Index, % change from vehicle control): −52%*
  TW change (%) (testes weight, % change from vehicle control): −7%
other
  melting point: 280 °C (dec.)

## CCN1CC[C@@H]2[C@@H](c3ccc(C(=O)OC)cc3)c3cc(C)c(I)cc3[C@@H]2C1.Cl (racemic) [Compound 18, (4aRS,5SR,9bRS)-2-Ethyl-2,3,4,4a,5,9b-hexahydro-8-iodo-7-methyl-5-(4-carbomethoxyphenyl)-1H-indeno[1,2-c]pyridine Hydrochloride]
Adult male Swiss mice; 1 mg/kg single gavage dose
  SI change (%) (Spermatogenic Index, % change from vehicle control): −57%*
  TW change (%) (testes weight, % change from vehicle control): −16%
Adult male Swiss mice; 3 mg/kg single gavage dose
  SI change (%) (Spermatogenic Index, % change from vehicle control): −69%*
  TW change (%) (testes weight, % change from vehicle control): −27%*
Adult male Swiss mice; 10 mg/kg single gavage dose
  SI change (%) (Spermatogenic Index, % change from vehicle control): −74%*
  TW change (%) (testes weight, % change from vehicle control): −36%*
other
  melting point: > 190 °C (dec.)

## CCN1CCC2C(C1)c1cc(I)c(C)cc1C2c1ccc(C(=O)OC)cc1.Cl (stereo not drawn) [Compound 4587-073l]
Aspergillus fumigatus; concentration 100
  CFU for MFC at 100: Cidal (Cidal = >98% killed)
Aspergillus fumigatus; concentration 200
  CFU for MFC at 200: Cidal (Cidal = >98% killed)
Aspergillus fumigatus; concentration 300
  CFU for MFC at 300: Cidal (Cidal = >98% killed)
Aspergillus fumigatus; [1]
  Lowest [Active]: 100
Rat cauda sperm; +1 μM
  Motility (%) at 60 Minutes (in words): Progressive motility-equal to control
Rat cauda sperm; +3 μM
  Motility (%) at 60 Minutes (in words): Progressive motility diminished
Rat cauda sperm; +10 μM
  Motility (%) at 60 Minutes (in words): No progressive motility - twitching
Rat cauda sperm; +30 μM
  Motility (%) at 60 Minutes (in words): Same as for 10 μM
Rat cauda sperm; +100 μM
  Motility (%) at 60 Minutes (in words): Death
Rabbit ejaculated sperm; +1 μM
  Motility (%) at 60 Minutes: 73.0%
Rabbit ejaculated sperm; +3 μM
  Motility (%) at 60 Minutes: 68.4%
Rabbit ejaculated sperm; +10 μM
  Motility (%) at 60 Minutes: 67.6%
Rabbit ejaculated sperm; +30 μM
  Motility (%) at 60 Minutes: 61.9%
Rabbit ejaculated sperm; +100 μM
  Motility (%) at 60 Minutes: 15.2 * %
Rabbit ejaculated sperm; +300 μM
  Motility (%) at 60 Minutes: 0%
Rabbit ejaculated sperm; +1000 μM
  Motility (%) at 60 Minutes: 0 ** %
Rabbit ejaculated sperm; rabbit sperm, +100 μM, 60 minutes
  Quality of motility (footnote *): * Motility not progressive - twitching
Rabbit ejaculated sperm; rabbit sperm, +1000 μM, 60 minutes
  Sperm appearance: ** Sperm appeared to be “disintegrating”- sperm heads contain many vacuoles and membranes are not always intact
Candida albicans; concentration 100
  CFU for MFC at 100: Cidal (Cidal = >98% killed)
Candida albicans; concentration 200
  CFU for MFC at 200: Cidal (Cidal = >98% killed)
Candida albicans; concentration 300
  CFU for MFC at 300: Cidal (Cidal = >98% killed)
Candida albicans; [1]
  Lowest [Active]: 100

## CCN1CC[C@@H]2[C@@H](c3ccc(C(=O)O)cc3)c3cc(C)c(Br)cc3[C@@H]2C1.Cl (racemic) [Compound 19, (4aRS,5SR,9bRS)-2-Ethyl-8-Bromo-7-Methyl-2,3,4,4a,5,9b-Hexahydro-5-(4-carboxylphenyl)-1H-Indeno[1,2-c]pyridine Hydrochloride]
Adult male Swiss mice; 3 mg/kg single gavage dose
  SI change (%) (Spermatogenic Index, % change from vehicle control): −69%*
  TW change (%) (testes weight, % change from vehicle control): −8%
Adult male Swiss mice; 10 mg/kg single gavage dose
  SI change (%) (Spermatogenic Index, % change from vehicle control): −71%*
  TW change (%) (testes weight, % change from vehicle control): −28%*
Adult male Swiss mice; 30 mg/kg single gavage dose
  SI change (%) (Spermatogenic Index, % change from vehicle control): −72%*
  TW change (%) (testes weight, % change from vehicle control): −39%*
other
  melting point: 169.6 to 170.3 °C

## CCN1CC[C@@H]2[C@@H](c3ccc(C(=O)OC)cc3)c3cc(C)ccc3[C@@H]2C1.Cl (racemic)
other
  melting point: 204 °C
